{"source": "patent US20100035802A1", "about": "“PARTICULAR SHORT-CHAIN PEPTIDE CANCER DRUG AND ITS TREATMENT” (priority 2007, published 2010)", "key": {"liver cancer cells": {"tested_on": "liver cancer cells", "assay": "cell experiments: survival and death rate of cancer cells added with the short-chain peptide", "format": "cell-based", "source_text": "The percent of normal cancer cells 1 is equal to the number of normal cancer cells divided by the summation of the number of normal cancer cells, the number of interphase cancer cells and the number of mitotic phase cancer cells. The percent of interphase cancer cells 2 is equal to the number of interphase cancer cells divided by the summation of the number of normal cancer cells, the number of interphase cancer cells and the number of mitotic phase cancer cells. The percent of mitotic phase cancer cells 3 is equal to the number of mitotic phase cancer cells divided by the summation of the number of normal cancer cells, the number of interphase cancer cells and the number of mitotic phase cancer cells. The percent of dead cancer cells 4 is equal to the number of dead cancer cells divided by the summation of the number of normal cancer cells, the number of interphase cancer cells, the number of mitotic phase cancer cells and the number of dead cancer cells.\nIn cell experiments, the survival rate of cancer cells added with none of the short-chain peptide is as high as 95%. Apoptosis of cancer cells begins as soon as the short-chain peptide is added to cancer cells; it's obviously found out that after 24 hours, the survival rate of cancer cells is lowered to about 25% and the death rate is raised to about 70%, 35 to 40 times of normal death rate.\n(§1) In Attachment, Photos 1˜3 show the cell cycles of liver cancer cells respectively added and not added with the particular short-chain peptide in cell experiments. Photos 4 and 5 show the growth of cancer cells respectively added and not added with the particular short-chain peptide in animal experiments."}, "cancer cells": {"tested_on": "cancer cells", "assay": "animal experiments: growth of cancer cells added with the short-chain peptide", "format": "in vivo", "conditions": "after having been added with the short-chain peptide for a certain period of time", "source_text": "as §1"}}, "data": [{"substance": "RGDLASLQKAAHGHVRKAFKSHVSTLTDLQPYMRQFVAHLQETSPLRD (RGDLASLQKAAHGHVRKAFKSHVSTLTDLQPYMRQFVAHLQETSPLRD) [short-chain peptide, unique short-chained peptide composed of 48 amino acids]", "values": [{"measurement": "effect on cell cleavage of cancer cells", "setting": "liver cancer cells; cancer cells added with the short-chain peptide", "value": "stagnating on the stage of cell cleavage for being further induced to apoptosis to death"}, {"measurement": "death rate of cancer cells", "setting": "liver cancer cells; cell experiments, after 24 hours with the short-chain peptide", "value": "about 70%"}, {"measurement": "survival rate of cancer cells", "setting": "liver cancer cells; cell experiments, after 24 hours with the short-chain peptide (without peptide 95%)", "value": "about 25%"}, {"measurement": "death rate of the liver cancer cells", "setting": "liver cancer cells; liver cancer cells, after 24-hour culture, repeated experiments", "value": "about 70%"}, {"measurement": "death of cancer cells in animal experiments (Photo 5)", "setting": "cancer cells", "value": "die massively via apoptosis"}]}]}
